According to paper PMC6272242, “Topical Anti-inflammatory Activity of New Hybrid Molecules of Terpenes and Synthetic Drugs” (Molecules, 2015):

Columns and labels:
[1] = test system: mice ear edema induced by arachidonic acid; assay: Topical anti-inflammatory effect, arachidonic acid (AA) induced ear edema in mice; type: in vivo; conditions: 3.2 µmol/mouse; for inhibition in vivo at 3.2 µmol/animal: 1 h after AA, n = 8, read-out: % TAAA ± SEM (percent reduction of the ear edema, arachidonic acid)
Experimental: (§1) The inflammatory agent arachidonic acid (AA) and phorbol 12-myristate 13-acetate (TPA) were used to assess the anti-inflammatory effect/action mechanism of the starting compounds, new synthetic products and reference drugs. […] Adult male CF-1 mice (20–25 g), obtained from a stock maintained at the Chilean Public Health Institute, were used to assess the anti-inflammatory effect. All animals were housed in a climate- and light-controlled room with a 12 h light-dark cycle, fasted overnight before the day of the assays, with free access to water. The anti-inflammatory activity of each compound was evaluated in groups of 8 treated and 16 control mice. Due to ethical considerations, the number of animals was kept to a minimum and single dose experiments were carried out.
(§2) The pro-inflammatory agents TPA and AA, the reference drugs indomethacin and nimesulide were from Sigma. […] After 5 min, inflammation was induced by the application of 20 µL TPA or AA (5 mg/mL) in acetone. […] Control subjects only received TPA or AA. Both, the sample and the TPA or AA, were applied to the inner (10 µL) and outer (10 µL) surfaces of the right ear. The left ear only received acetone. Mice were sacrificed by cervical dislocation (after 6 h of TPA and 1 h AA), and a 6 mm diameter section of the right and left ears were cut and weighed. The weight differences between both ear sections correspond to the edema value. The percent topical anti-inflammatory activity (TA) was evaluated according to the following equation: (1) %TA=[ Wc−Ws/Wc]× 100 where Wc and Ws are the different median values of the weights of the right and the left ear sections of the control and the treated animals, respectively.
(§3) For the animal experiments all values are presented as median ± SEM. Drug-induced changes were statistically estimated using the Kruskall-Wallis test for comparison between groups and testing, and the Mann-Whitney test was used in the independent data for individual comparisons. The effects were considered significant if p ≤ 0.05. For cytotoxicity experiments, each concentration was tested in quadruplicate together with the control and repeated three times in different experiments. Results are expressed as IC50 values (µM) ± S.D.

hepatocytes HepG2 = assay: Cytotoxicity, MTT reduction assay, HepG2; type: cell-based; conditions: Homo sapiens, confluent cultures, 24 h, read-out: IC50 ± SD, HepG2
Experimental: The human cell lines, MRC-5 normal lung fibroblasts (CCL-171), AGS gastric epithelial adenocarcinoma cells (CRL-1739) and HepG2 hepatocellular carcinoma cells (HB-8065) were obtained from the American Type Culture Collection (ATCC, Manasas, VA, USA). The cells were grown as monolayers in the following media: MRC-5 and HepG2 in MEM and AGS in Ham F-12. The MEM medium contained 2 mM L-glutamine, 1 mM sodium pyruvate and 1.5 g/L sodium bicarbonate. Ham F-12 was supplemented with 2 mM L-glutamine and 1.5 g/L sodium bicarbonate. Both media were supplemented with 10% heat inactivated fetal bovine serum, 100 IU/mL penicillin and 100 µg/mL streptomycin in a humidified incubator with 5% CO2 in air at 37 °C. For the experiments, cells were plated at a density of 25,000 cells/mL in 96-well plates. […] Compounds were first dissolved in DMSO and then in medium. The final concentration of DMSO in the test medium and controls was 1%. […] The cell viability for each compound was calculated comparing the cell viability of the untreated controls (100%) with the cell viability of the different concentrations of each compound. Each concentration was tested in quadruplicate together with the control and repeated three times in separate experiments. Cell viability was determined at the end of the incubation by means of the MTT reduction assay. […] Culture media, antibiotics and fetal bovine serum were obtained from Invitrogen Corp. (Waltham, MA, USA). Other reagents were purchased from Sigma Chemical Co. For the animal experiments all values are presented as median ± SEM. Drug-induced changes were statistically estimated using the Kruskall-Wallis test for comparison between groups and testing, and the Mann-Whitney test was used in the independent data for individual comparisons. The effects were considered significant if p ≤ 0.05. For cytotoxicity experiments, each concentration was tested in quadruplicate together with the control and repeated three times in different experiments. Results are expressed as IC50 values (µM) ± S.D.

[2] = test system: acetic acid-induced writhing; set-up: method as in PMID 12767601; conditions: oral administration, ibuprofen at 40 mg/kg; cited from earlier work
xylene-induced ear edema = test system: xylene-induced ear edema; set-up: method as in PMID 16806590; conditions: mice; cited from earlier work
lung fibroblasts (MRC-5) = assay: Cytotoxicity, MTT reduction assay, MRC-5; type: cell-based; conditions: Homo sapiens, MRC5, confluent cultures, 24 h, read-out: IC50 ± SD, MRC-5
Experimental: (§4) The human cell lines, MRC-5 normal lung fibroblasts (CCL-171), AGS gastric epithelial adenocarcinoma cells (CRL-1739) and HepG2 hepatocellular carcinoma cells (HB-8065) were obtained from the American Type Culture Collection (ATCC, Manasas, VA, USA). The cells were grown as monolayers in the following media: MRC-5 and HepG2 in MEM and AGS in Ham F-12. The MEM medium contained 2 mM L-glutamine, 1 mM sodium pyruvate and 1.5 g/L sodium bicarbonate. Ham F-12 was supplemented with 2 mM L-glutamine and 1.5 g/L sodium bicarbonate. Both media were supplemented with 10% heat inactivated fetal bovine serum, 100 IU/mL penicillin and 100 µg/mL streptomycin in a humidified incubator with 5% CO2 in air at 37 °C. For the experiments, cells were plated at a density of 25,000 cells/mL in 96-well plates. […] Compounds were first dissolved in DMSO and then in medium. The final concentration of DMSO in the test medium and controls was 1%. […] The cell viability for each compound was calculated comparing the cell viability of the untreated controls (100%) with the cell viability of the different concentrations of each compound. Each concentration was tested in quadruplicate together with the control and repeated three times in separate experiments. Cell viability was determined at the end of the incubation by means of the MTT reduction assay. Results were converted to percentage of controls, and the IC50 values were graphically obtained from the dose-response curves. Culture media, antibiotics and fetal bovine serum were obtained from Invitrogen Corp. (Waltham, MA, USA). Other reagents were purchased from Sigma Chemical Co. For the animal experiments all values are presented as median ± SEM. Drug-induced changes were statistically estimated using the Kruskall-Wallis test for comparison between groups and testing, and the Mann-Whitney test was used in the independent data for individual comparisons. The effects were considered significant if p ≤ 0.05. For cytotoxicity experiments, each concentration was tested in quadruplicate together with the control and repeated three times in different experiments. Results are expressed as IC50 values (µM) ± S.D.

[3] = test system: human lung fibroblasts (MRC-5), gastric epithelial cells (AGS) and hepatocytes HepG2; assay: Cytotoxicity, MTT reduction assay, summary over the three cell lines; type: cell-based; conditions: Homo sapiens; MRC-5, AGS and HepG2, 24 h, MTT; read-out: IC50 values, range over the three cell lines
Experimental: as §4

[4] = test system: gastric epithelial cells (AGS); assay: Cytotoxicity, MTT reduction assay, AGS; type: cell-based; conditions: Homo sapiens, Epithelial cell, confluent cultures, 24 h, read-out: IC50 ± SD, AGS
Experimental: as §4

[5] = test system: mice ear edema induced by 12-O-tetradecanoylphorbol 13-acetate; assay: Topical anti-inflammatory effect, 12-O-tetradecanoylphorbol 13-acetate (TPA) induced ear edema in mice; type: in vivo; conditions: 1.4 µmol/mouse, 6 h after TPA, n = 8, read-out: % TATPA ± SEM (percent reduction of the ear edema, TPA)
Experimental: as §1, §2, §3

| Compound | Activity in the AA model, in words [1] | inhibition in vivo at 3.2 µmol/animal [1] | IC50 (hepatocytes HepG2) | Reduction of stretches [2] | Reduction of xylene-induced ear edema (xylene-induced ear edema) | IC50 (lung fibroblasts (MRC-5)) | IC50 [3] | IC50 [4] | inhibition in vivo at 1.4 µmol/animal [5] |
| --- | --- | --- | --- | --- | --- | --- | --- | --- | --- |
| CC(C)Cc1ccc(C(C)C(=O)O)cc1 (stereo not shown) [Compound 4, ibuprofen, reference compound] | inactive | 7.2 ± 5.5% | > 1000 µM | 77.6% | 45.9% | > 1000 µM | > 1000 µM | > 1000 µM | 56.2 ± 3.4% |
| COc1ccc2cc([C@H](C)C(=O)Oc3cc4c(cc3C(C)C)CCC3C(C)(C)CCC[C@]43C)ccc2c1 (stereo partly shown) [Compound 7, Ferruginyl naproxenate] |  | 26.6 ± 4.1% | > 1000 µM |  |  | 945 ± 56 µM | ≥ 874 µM | 874 ± 49 µM | 26.8 ± 3.8% |
| C=C1CCC2[C@](C)(CCC[C@]2(C)C(=O)O)[C@H]1CC[C@@H](C)CCOC(=O)[C@@H](C)c1ccc2cc(OC)ccc2c1 (stereo partly shown) [Compound 10, Imbricatol-15-yl naproxenate] |  | 16.3 ± 3.8% | 69 ± 4 µM |  |  | 37 ± 2 µM | 29 to 69 µM | 29 ± 2 µM | 37.7 ± 3.3% |
| C=C1CCC2[C@](C)(CCC[C@]2(C)C(=O)OC)[C@H]1CC[C@@H](C)CCOC(=O)[C@@H](C)c1ccc2cc(OC)ccc2c1 (stereo partly shown) [Compound 11, Imbricatol-15-yl naproxenate methyl ester] |  | 20 ± 9.4% | > 1000 µM |  |  | 907 ± 54 µM | ≥ 601 µM | 601 ± 25 µM | 42.7 ± 8.3% |
| ibuprofen propyl glucopyranoside ester |  |  |  |  | 52.7% |  |  |  |  |
